Key:
6 HCC PDO lines [1] = assay: FACS analysis of Ki67 protein; type: cell-based, human; settings: all 6 HCC PDO lines tested
Method: (§1) FIG. 4A-4D. Proliferation assay of HCC PDOs treated with omacetaxine in vitro. […] (4B and 4D).Ki67 expression from 6 HCC PDO lines treated with omacetaxine were analyzed with flow cytometry. […] The effects on proliferation were assessed to elucidate the omacetaxine mechanisms of action. […] To further understand the effects of omacetaxine on cancer cell proliferation and cell cycle, the inventors performed FACS analysis of Ki67 protein. Ki-67 is a nuclear protein expressed in proliferating cells (in all phases of the cell cycle except G0)^22,23. Furthermore, the higher expression of Ki67 has been linked to poorer disease free survival and overall survival in HCC^24. […] As caspase 3 is a key molecule in apoptosis, the inventors measured its activated (cleaved) fragment.

26-3 PDX [2] = assay: Ki67 immunofluorescent staining of PDX tumor frozen sections; type: in vivo, NSG mice; settings: omacetaxine treated HCC PDX tumors vs matched controls
Excerpt: (§2) FIG. 8A-8G. Omacetaxine inhibits tumor cell proliferation and increases apoptosis and suppressed HCC oncoprotein expression in vivo. (8A-8D) Immunofluorescent staining of Ki67 and cleaved caspase 3 expression in 26-3 PDX model. 8A-8B show the IF staining pictures, 8C-8D show the relative Ki67 or cleaved caspase 3 positive cell number in omacetaxine treated mice compared with control treatment groups. (8E-8G) Omacetaxine suppressed HCC oncoprotein: c-Myc, Beta-catenin and MET protein expression in 50 HCC PDX treated with Omacetaxine vs control.
(§3) To verify the mechanism of omacetaxine target HCC mechanism in vivo, omacetaxine treated HCC PDX tumors, as well as matched controls, were harvested, and frozen section slides were made. […] The difference in apoptosis as well as proliferation was statistically significant (FIGS. 8C and 8D).

MYC = assay: oncoprotein level by FACS at 96 h in 6 HCC PDO lines; type: cell-based, human
Excerpt: (§4) FIG. 3A-3H. Mechanism of Omacetaxine action on different HCC patient derived organoids lines. (3A). […] (3B). […] (3C) The mean fluorescence intensity ratio reflected protein synthesis rate of the plots data in (a). (3D-3H).
(§5) Select oncoproteins, such as MYC, beta-catenin, Cyclin D1, XIAP and MET are short half-life proteins^20, 26, 27.

XIAP = assay: as above; type: cell-based, human
Excerpt: as §4, §5

beta-catenin = assay: as above; type: cell-based, human
Excerpt: as §4, §5

Cyclin D1 = assay: as above; type: cell-based, human
Excerpt: as §4, §5

MET = assay: as above; type: cell-based, human
Excerpt: as §4, §5

6 HCC PDO lines [3] = assay: FACS analysis of BrdU incorporation (proliferation); type: cell-based, human
6 HCC PDO lines [4] = assay: cleaved caspase 3 flow cytometry; type: cell-based, human
Method: as §1, with “5A-5E. Apoptosis analysis” for “4A-4D. Proliferation assay”, “vitro. Organoids were plate on 24 well plate, omacetaxine at 700 μM, 350 μM were added to cell culture medium for 96 h. Then cells were collected and subjected to the analysis below. (5A and 5C). Flow cytometry analysis of 4 HCC PDOs apoptosis using Annexin V/7AAD assay.” for “vitro.”, “(5B” for “(4B”, “5D). Flow cytometry analysis of cleaved caspase 3” for “4D).Ki67”, “of omacetaxine treated” for “from 6”, “PDOs.” for “PDO lines treated with omacetaxine were analyzed with flow cytometry.”

HCC 65-2 = assay: IC50 in PDO line; type: cell-based; settings: Homo sapiens
Method: (§6) The inventors tested omacetaxine at decreasing concentrations (10 μM, 1 μM, 100 nM, 10 nM and 1 nM) to calculate the half-maximal inhibitory concentration (IC50). […] The IC50 value for each of the 40 HCC PDO lines can be found in Table 2.

HCC 38 = assay: IC50 in PDO line; type: cell-based; settings: Homo sapiens
Method: as §6

HCC 80-4 = assay: IC50 in PDO line; type: cell-based; settings: Homo sapiens
Method: as §6

HCC 26-7 = assay: IC50 in PDO line; type: cell-based; settings: Homo sapiens
Method: as §6

6 HCC PDO lines [5] = assay: Annexin V / 7AAD flow cytometry apoptosis assay; type: cell-based, human; settings: 700 μM, 350 μM, 96 h
Method: as §1, with “5A-5E. Apoptosis analysis” for “4A-4D. Proliferation assay”, “vitro. Organoids were plate on 24 well plate, omacetaxine at 700 μM, 350 μM were added to cell culture medium for 96 h. Then cells were collected and subjected to the analysis below. (5A and 5C).” for “vitro.”, “(5B” for “(4B”, “5D). Flow cytometry analysis of cleaved caspase 3” for “4D).Ki67”, “of omacetaxine treated” for “from 6”, “PDOs.” for “PDO lines treated with omacetaxine were analyzed with flow cytometry.”

[6] = FDA approved dosage, cited from earlier work
26-3 PDX [7] = assay: Cleaved Caspase 3 staining of PDX tumor frozen sections; type: in vivo, NSG mice; settings: omacetaxine treated HCC PDX tumors vs matched controls
Excerpt: as §2, §3

40 HCC PDO lines = assay: omacetaxine dose response, IC50 across all 40 HCC PDO lines; type: cell-based; settings: Homo sapiens; average of 40 HCC PDO lines; read-out: calculated average IC50 across all 40 HCC PDO lines
Method: FIG. 2A-2E. 10 μM drug screening and IC50 calculation across 40 PDOs from 20 HCC patients. (2A). 10 μM drug screening of omacetaxine and sorafenib, regorafenib, lenvatinib and cabozantinib on 40 PDOs derived from 20 HCC patients. X axis—the 40 PDO lines, Y axis—Cell viability. (2B). IC50 curve of 40 PDO lines, x-axis—omacetaxine dose, Y axis—Relative cell viability. (2C). […] (2D). IC50 distribution of 40 HCC PDOs. X axis—PDO lines, Y axis—IC50 number of omacetaxine for each PDO.

Question: Which results are given for `COC(=O)C[C@](O)(CCCC(C)(C)O)C(=O)O[C@@H]1C(OC)=C[C@]23CCCN2CCc2cc4c(cc2[C@H]13)OCO4` [omacetaxine, omacetaxine mepusuccinate]?
Answer: expression of Ki67 (6 HCC PDO lines [1]): reduces the expression of Ki67; proliferation as measured by Ki67 protein expression (26-3 PDX [2]): less; MYC level (MYC): inhibited; XIAP level (XIAP): inhibited; beta-catenin level (beta-catenin): inhibited; Cyclin D1 level (Cyclin D1): inhibited; MET level (MET): inhibited; BrdU incorporation in newly synthetized DNA (proliferation) (6 HCC PDO lines [3]): inhibited incorporation; cleaved caspase 3 (6 HCC PDO lines [4]): induced; IC50 (HCC 65-2): 7.4 nM; IC50 (HCC 38): 18.5 nM; IC50 (HCC 80-4): 3.18 nM; IC50 (HCC 26-7): 1.41 nM; early / late apoptosis (Annexin V, 7AAD) (6 HCC PDO lines [5]): either early apoptosis, or late apoptosis, or both were increased; infectious complications, share of patients [6]: approximately 5%; main side effects ([6]; patients): hematologic depletion (thrombocytopenia, anemia, and neutropenia) and diarrhea; apoptosis as quantified by Cleaved Caspase 3 staining (26-3 PDX [7]): increased; IC50 (40 HCC PDO lines): 35.2 nM

From patent US20220226342A1, “COMPOSITIONS AND METHODS OF TREATING LIVER CANCERS” (The Johns Hopkins University, priority 2019, published 2022)
